From ChEMBL document CHEMBL1140423, “(6,7-Dimethoxy-2,4-dihydroindeno[1,2-c]pyrazol-3-yl)phenylamines: platelet-derived growth factor receptor tyrosine kinase inhibitors with broad antiproliferative activity against tumor cells” (J Med Chem, 2005)

How the values were obtained:
U-87 MG = assay: Antiproliferative activity against human glioma tumor cell line U87MG; type: functional, cell-based, U-87MG ATCC
ASPC1 = assay: Antiproliferative activity against human pancreatic tumor cell line AsPC1; type: functional, cell-based
T47D = assay: Antiproliferative activity against human breast tumor cell line T47D; type: functional, cell-based
A-375 = assay: Antiproliferative activity against human melanoma tumor cell line A375; type: functional, cell-based
[1] = biological target: Platelet-derived growth factor receptor beta (Homo sapiens, UniProt P09619); assay: Inhibitory activity against PDGFRbeta kinase
Sequence of Platelet-derived growth factor receptor beta (P09619 whole entry): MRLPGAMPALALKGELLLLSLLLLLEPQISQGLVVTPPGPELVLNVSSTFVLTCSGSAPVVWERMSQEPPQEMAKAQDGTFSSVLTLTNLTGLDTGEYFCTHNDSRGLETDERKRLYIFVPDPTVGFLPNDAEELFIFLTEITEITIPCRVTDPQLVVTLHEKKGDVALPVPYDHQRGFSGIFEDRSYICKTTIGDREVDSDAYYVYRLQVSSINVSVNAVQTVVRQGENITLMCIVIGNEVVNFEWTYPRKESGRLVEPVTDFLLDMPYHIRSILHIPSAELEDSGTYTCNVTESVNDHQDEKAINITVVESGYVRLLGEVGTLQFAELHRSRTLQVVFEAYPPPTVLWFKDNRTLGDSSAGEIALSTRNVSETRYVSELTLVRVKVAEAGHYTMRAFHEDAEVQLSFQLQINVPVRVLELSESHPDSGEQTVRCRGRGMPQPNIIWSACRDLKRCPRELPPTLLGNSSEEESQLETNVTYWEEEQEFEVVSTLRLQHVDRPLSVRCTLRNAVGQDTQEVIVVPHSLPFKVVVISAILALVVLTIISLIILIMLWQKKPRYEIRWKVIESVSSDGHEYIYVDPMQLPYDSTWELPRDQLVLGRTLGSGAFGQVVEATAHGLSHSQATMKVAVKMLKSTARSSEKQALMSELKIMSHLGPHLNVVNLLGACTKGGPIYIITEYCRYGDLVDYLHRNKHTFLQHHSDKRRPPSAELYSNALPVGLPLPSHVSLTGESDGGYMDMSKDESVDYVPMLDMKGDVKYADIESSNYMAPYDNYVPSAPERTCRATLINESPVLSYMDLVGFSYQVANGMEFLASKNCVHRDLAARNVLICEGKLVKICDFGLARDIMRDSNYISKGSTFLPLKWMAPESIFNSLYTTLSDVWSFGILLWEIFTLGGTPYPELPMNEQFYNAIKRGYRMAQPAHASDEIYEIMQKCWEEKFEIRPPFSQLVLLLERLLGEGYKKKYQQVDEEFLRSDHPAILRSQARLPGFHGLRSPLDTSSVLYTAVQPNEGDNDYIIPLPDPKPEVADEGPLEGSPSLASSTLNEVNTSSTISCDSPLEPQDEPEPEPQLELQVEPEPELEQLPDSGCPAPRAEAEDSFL

HUVEC = assay: Antiproliferative activity against LSGS stimulated HUVEC; type: functional, cell-based; settings: Homo sapiens
NCI-H460 = assay: Antiproliferative activity against human lung tumor cell line H460; type: functional, cell-based
PC-3 = assay: Antiproliferative activity against human prostate tumor cell line PC3; type: functional, cell-based
LNCaP = assay: Antiproliferative activity against human prostate tumor cell line LnCAP; type: functional, cell-based
LoVo = assay: Antiproliferative activity against human colon tumor cell line LoVo; type: functional, cell-based
Casein kinase II = Casein kinase II (Homo sapiens, UniProt P19784+P67870+P68400); assay: Inhibitory activity against Casein Kinase 2; type: protein-complex assay
[2] = biological target: Mitogen-activated protein kinase 1 (Homo sapiens, UniProt P28482); assay: Inhibitory activity against MAPK
Sequence of Mitogen-activated protein kinase 1 (P28482 whole entry): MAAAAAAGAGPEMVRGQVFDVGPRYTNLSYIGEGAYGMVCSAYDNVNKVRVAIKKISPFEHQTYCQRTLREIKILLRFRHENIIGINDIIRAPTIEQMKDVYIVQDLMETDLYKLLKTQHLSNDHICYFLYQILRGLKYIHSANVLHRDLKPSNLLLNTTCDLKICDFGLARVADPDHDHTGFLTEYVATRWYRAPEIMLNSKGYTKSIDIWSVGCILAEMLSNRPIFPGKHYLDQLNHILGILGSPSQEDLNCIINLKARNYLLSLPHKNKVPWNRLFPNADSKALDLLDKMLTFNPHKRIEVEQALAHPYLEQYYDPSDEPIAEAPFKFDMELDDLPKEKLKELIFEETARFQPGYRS

[3] = biological target: Proto-oncogene tyrosine-protein kinase Src (Homo sapiens, UniProt P12931); assay: Inhibitory activity against c-SRC
Sequence of Proto-oncogene tyrosine-protein kinase Src (P12931 2-536 limits assumed): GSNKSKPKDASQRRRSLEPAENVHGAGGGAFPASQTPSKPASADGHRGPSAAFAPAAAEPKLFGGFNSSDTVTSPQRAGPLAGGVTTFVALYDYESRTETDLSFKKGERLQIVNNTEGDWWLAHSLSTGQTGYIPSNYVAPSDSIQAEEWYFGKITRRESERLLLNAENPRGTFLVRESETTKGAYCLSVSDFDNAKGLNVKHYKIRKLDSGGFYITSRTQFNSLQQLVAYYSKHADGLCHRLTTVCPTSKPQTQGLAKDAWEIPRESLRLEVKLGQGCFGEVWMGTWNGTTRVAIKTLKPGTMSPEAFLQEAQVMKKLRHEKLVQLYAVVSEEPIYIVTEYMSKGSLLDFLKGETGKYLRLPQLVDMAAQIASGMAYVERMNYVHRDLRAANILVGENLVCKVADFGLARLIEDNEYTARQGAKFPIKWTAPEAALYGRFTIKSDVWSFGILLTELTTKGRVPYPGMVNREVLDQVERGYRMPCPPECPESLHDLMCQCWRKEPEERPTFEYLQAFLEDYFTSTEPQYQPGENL

[4] = biological target: Vascular endothelial growth factor receptor (Homo sapiens, UniProt P17948+P35916+P35968); assay: Inhibitory activity against VEGFR; type: protein assay
[5] = biological target: Platelet-derived growth factor receptor alpha (Homo sapiens, UniProt P16234); assay: Inhibitory activity against PDGFRalpha
[6] = Inhibitory activity against Calmodulin Kinase
[7] = biological target: Cyclin-dependent kinase 2 (Homo sapiens, UniProt P24941); assay: Inhibitory activity against CDK2
[8] = biological target: Cyclin-dependent kinase 1 (Homo sapiens, UniProt P06493); assay: Inhibitory activity against CDK1
Sequence of Cyclin-dependent kinase 1 (P06493 whole entry): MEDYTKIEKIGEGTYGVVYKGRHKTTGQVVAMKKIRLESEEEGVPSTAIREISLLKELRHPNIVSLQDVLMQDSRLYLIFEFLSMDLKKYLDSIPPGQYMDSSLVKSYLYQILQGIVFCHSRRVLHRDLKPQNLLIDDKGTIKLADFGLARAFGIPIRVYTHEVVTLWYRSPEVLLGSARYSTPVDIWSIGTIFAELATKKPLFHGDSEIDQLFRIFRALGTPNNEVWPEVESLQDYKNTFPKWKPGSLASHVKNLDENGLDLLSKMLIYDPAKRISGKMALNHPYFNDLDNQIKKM

[9] = biological target: Tyrosine-protein kinase Fyn (Homo sapiens, UniProt P06241); assay: Inhibitory activity against FYN
Insulin receptor = Insulin receptor (Homo sapiens, UniProt P06213); assay: Inhibitory activity against IRK
Sequence of Insulin receptor (P06213 28-758 limits assumed): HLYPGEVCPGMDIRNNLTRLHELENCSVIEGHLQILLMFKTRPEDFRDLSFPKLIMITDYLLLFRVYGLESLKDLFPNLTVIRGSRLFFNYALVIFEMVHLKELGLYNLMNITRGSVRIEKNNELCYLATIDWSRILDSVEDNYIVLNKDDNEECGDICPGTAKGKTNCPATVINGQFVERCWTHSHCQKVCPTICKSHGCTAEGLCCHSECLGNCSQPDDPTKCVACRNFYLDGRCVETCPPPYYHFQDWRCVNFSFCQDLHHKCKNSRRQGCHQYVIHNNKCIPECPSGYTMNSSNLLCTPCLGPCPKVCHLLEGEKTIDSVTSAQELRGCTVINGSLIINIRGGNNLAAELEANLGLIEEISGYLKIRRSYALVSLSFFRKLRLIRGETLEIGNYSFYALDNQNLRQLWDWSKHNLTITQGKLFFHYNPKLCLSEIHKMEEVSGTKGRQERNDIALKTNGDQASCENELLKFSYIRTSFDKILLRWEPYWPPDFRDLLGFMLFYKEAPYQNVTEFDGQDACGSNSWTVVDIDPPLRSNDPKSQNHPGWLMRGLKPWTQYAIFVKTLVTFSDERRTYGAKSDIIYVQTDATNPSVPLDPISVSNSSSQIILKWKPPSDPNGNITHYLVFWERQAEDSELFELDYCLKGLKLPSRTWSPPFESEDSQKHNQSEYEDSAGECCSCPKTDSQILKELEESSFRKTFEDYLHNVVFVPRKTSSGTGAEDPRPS
Sequence of Insulin receptor (P06213 763-1382 limits assumed): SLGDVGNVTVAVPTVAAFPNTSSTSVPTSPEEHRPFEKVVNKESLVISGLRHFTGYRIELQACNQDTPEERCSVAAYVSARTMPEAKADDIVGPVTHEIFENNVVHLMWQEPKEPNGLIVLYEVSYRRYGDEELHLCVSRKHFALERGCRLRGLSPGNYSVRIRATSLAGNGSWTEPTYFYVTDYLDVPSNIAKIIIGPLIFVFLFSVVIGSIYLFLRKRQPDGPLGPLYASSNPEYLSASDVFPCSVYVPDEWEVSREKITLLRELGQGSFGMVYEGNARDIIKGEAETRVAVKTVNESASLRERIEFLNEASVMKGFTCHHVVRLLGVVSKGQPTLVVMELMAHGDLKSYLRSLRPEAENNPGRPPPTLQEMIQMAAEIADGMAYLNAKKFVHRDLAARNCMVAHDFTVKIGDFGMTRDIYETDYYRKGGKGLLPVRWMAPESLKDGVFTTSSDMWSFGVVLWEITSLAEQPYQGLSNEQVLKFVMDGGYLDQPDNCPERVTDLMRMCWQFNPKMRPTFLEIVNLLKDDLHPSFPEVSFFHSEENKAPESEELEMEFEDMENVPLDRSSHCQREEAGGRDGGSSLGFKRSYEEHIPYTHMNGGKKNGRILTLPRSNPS

[10] = biological target: Receptor tyrosine-protein kinase erbB-2 (Homo sapiens, UniProt P04626); assay: Inhibitory activity against HER2
[11] = biological target: Cyclin-dependent kinase 7 (Homo sapiens, UniProt P50613); assay: Inhibitory activity against CDK7
[12] = biological target: Fibroblast growth factor receptor 1 (Homo sapiens, UniProt P11362); assay: Inhibitory activity against bFGFR1
Focal adhesion kinase 1 = Focal adhesion kinase 1 (Homo sapiens, UniProt Q05397); assay: Inhibitory activity against FAK
Sequence of Focal adhesion kinase 1 (Q05397 whole entry): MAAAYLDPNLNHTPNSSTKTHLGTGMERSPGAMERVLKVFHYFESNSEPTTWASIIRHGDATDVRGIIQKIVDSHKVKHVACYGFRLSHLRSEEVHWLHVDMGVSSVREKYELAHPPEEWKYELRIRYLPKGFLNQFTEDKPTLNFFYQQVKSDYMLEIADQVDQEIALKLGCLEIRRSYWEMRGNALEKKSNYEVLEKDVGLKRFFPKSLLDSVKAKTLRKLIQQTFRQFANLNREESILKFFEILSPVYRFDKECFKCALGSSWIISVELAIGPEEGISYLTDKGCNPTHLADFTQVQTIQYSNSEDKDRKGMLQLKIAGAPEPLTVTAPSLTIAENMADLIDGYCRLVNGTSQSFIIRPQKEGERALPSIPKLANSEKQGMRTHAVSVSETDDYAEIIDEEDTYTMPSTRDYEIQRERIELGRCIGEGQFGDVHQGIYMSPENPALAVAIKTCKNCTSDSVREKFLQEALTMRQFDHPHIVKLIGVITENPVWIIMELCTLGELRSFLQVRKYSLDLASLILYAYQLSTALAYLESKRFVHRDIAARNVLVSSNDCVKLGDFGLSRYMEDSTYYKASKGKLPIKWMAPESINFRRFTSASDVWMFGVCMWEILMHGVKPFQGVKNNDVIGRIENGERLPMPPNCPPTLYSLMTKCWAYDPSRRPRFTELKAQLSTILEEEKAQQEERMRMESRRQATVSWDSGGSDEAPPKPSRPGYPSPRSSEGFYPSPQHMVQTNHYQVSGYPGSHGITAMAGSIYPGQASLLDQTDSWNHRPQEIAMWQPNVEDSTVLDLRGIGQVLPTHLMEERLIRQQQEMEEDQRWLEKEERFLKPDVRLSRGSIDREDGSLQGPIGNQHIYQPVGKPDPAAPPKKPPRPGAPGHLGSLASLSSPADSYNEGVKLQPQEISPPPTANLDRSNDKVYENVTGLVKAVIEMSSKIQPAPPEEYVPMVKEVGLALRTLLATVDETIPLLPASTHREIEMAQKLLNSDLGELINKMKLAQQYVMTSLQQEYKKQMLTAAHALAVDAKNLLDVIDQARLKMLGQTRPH

[13] = biological target: Cyclin-dependent kinase 4 (Homo sapiens, UniProt P11802); assay: Inhibitory activity against CDK4
Sequence of Cyclin-dependent kinase 4 (P11802 whole entry): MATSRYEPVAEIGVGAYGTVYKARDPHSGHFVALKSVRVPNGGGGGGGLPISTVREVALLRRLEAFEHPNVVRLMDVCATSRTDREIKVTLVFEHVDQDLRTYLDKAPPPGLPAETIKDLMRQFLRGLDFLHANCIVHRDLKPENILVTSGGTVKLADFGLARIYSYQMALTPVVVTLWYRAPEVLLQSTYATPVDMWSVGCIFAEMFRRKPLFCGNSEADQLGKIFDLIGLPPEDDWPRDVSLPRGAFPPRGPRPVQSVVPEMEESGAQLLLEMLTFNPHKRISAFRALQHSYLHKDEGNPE

[14] = biological target: Glycogen synthase kinase-3 (Homo sapiens, UniProt P49840+P49841); assay: Inhibitory activity against GSK3; type: protein assay
[15] = biological target: cAMP-dependent protein kinase (PKA) (Homo sapiens, UniProt P22694+P17612+P22612); assay: Inhibitory activity against PKA; type: protein assay

| SMILES | IC50 (U-87 MG) [nM] | IC50 (ASPC1) [nM] | IC50 (T47D) [nM] | IC50 (A-375) [nM] | IC50 [1] [nM] | IC50 (HUVEC) [nM] | IC50 (NCI-H460) [nM] | IC50 (PC-3) [nM] | IC50 (LNCaP) [nM] | IC50 (LoVo) [nM] | also measured |
| --- | --- | --- | --- | --- | --- | --- | --- | --- | --- | --- | --- |
| COc1cc2c(cc1OC)-c1[nH]nc(-c3ccccc3)c1C2 | > 50000 | 6820 | 4410 | 8850 | 17 | 1390 | 8400 | 31200 | 1200 | 2700 | – |
| COc1cc2c(cc1OC)-c1n[nH]c(Nc3cccc(F)c3)c1C2 | 13000 | 592 | 32 | 7 | 4.2 | 4870 | 10 | 27 | 9 | 17 | IC50 (Casein kinase II): > 100000 nM; IC50 [2]: > 100000 nM; IC50 [3]: 185 nM; IC50 [4]: 3100 nM; IC50 [5]: 45 nM; IC50 [6]: > 10000 nM; IC50 [7]: > 10000 nM; IC50 [8]: > 100000 nM; IC50 [9]: 378 nM; IC50 (Insulin receptor): > 100000 nM; IC50 [10]: > 10000 nM; IC50 [11]: 56700 nM; IC50 [12]: 45800 nM; IC50 (Focal adhesion kinase 1): > 100000 nM; IC50 [13]: > 100000 nM; IC50 [14]: 13000 nM; IC50 [15]: > 100000 nM |
| COc1cc2c(cc1OC)-c1n[nH]c(Nc3ccccc3)c1C2 | 21000 | 2160 | 420 | 62 | 9 | 31 | 353 | 108 | 600 | 124 | – |
| COc1ccc2c(c1)-c1n[nH]c(Nc3ccccc3)c1C2 | > 100000 | > 10000 | > 10000 | > 50000 | – | – | – | > 10000 | 14400 | – | – |
| COc1cc2c(cc1OC)-c1n[nH]c(Nc3cccc(C)c3)c1C2 | > 100000 | 4450 | 42 | 15 | – | 8 | 29 | – | 1 | 19 | – |
| COc1cc2c(cc1OC)-c1n[nH]c(Nc3cccc(C(=O)O)c3)c1C2 | – | – | – | – | > 800 | – | – | – | – | – | – |
| COc1cc2c(cc1OC)-c1n[nH]c(Nc3cccc(Cl)c3)c1C2 | 24000 | – | – | – | – | – | – | – | – | – | – |
| COc1cccc(Nc2[nH]nc3c2Cc2cc(OC)c(OC)cc2-3)c1 | > 100000 | 355 | 33 | 4 | – | 11 | 4 | – | 5 | 4 | – |
| COc1cc2c(cc1OC)-c1n[nH]c(Nc3ccc(Cl)cc3Cl)c1C2 | – | – | – | – | 5420 | – | – | – | – | – | – |
| COc1cccc2c1Cc1c-2n[nH]c1Nc1ccccc1 | > 100000 | > 10000 | 4700 | 1190 | – | 283 | 2800 | 7340 | 1700 | 798 | – |
| COc1cc2c(cc1OC)-c1n[nH]c(Nc3ccc(Cl)c(Cl)c3)c1C2 | – | – | – | – | 410 | – | – | – | – | – | – |
| COc1cc2c(cc1OC)-c1n[nH]c(Nc3cc(Cl)ccc3Cl)c1C2 | – | – | – | – | 6220 | – | – | – | – | – | – |
| COC(=O)c1cccc(Nc2[nH]nc3c2Cc2cc(OC)c(OC)cc2-3)c1 | – | – | – | – | 33 | – | – | – | – | – | – |
| COc1cc2c(cc1OC)-c1n[nH]c(Nc3cc(Cl)cc(Cl)c3)c1C2 | – | – | – | – | 310 | – | – | – | – | – | – |
| COc1cc2c(cc1OC)-c1n[nH]c(Nc3cccc(Br)c3)c1C2 | > 100000 | 331 | 37 | 6 | 5 | 1480 | 6 | 18 | 2 | 6 | – |
| COc1cc2c(cc1OC)-c1n[nH]c(Nc3cccc(C(F)(F)F)c3)c1C2 | > 100000 | 290 | 440 | 35 | 38 | 2500 | 31 | 21 | 255 | 28 | – |
